Assay results published in the kinase profiling compilation of Christmann-Franck et al. (2016).
Values joined by “and” are separate entries in the source; they are usually repeats but may differ in a detail not shown here. Identical values can stand only once.

Tests used:
Test in all cases: radiometric filter-binding kinase assay, Kinase HotSpot
Conditions in all cases: compound 0.5 µM; ATP 10 µM
CSF1R (human) = CSF1R (human) (UniProt P07333)
FLT3 (human) = FLT3 (human) (UniProt P36888)
PAK7 (human) = PAK7 (human) (UniProt Q9P286)
LCK (human) = LCK (human) (UniProt P06239)
LCK (human), sequence (P06239 whole entry, looked up): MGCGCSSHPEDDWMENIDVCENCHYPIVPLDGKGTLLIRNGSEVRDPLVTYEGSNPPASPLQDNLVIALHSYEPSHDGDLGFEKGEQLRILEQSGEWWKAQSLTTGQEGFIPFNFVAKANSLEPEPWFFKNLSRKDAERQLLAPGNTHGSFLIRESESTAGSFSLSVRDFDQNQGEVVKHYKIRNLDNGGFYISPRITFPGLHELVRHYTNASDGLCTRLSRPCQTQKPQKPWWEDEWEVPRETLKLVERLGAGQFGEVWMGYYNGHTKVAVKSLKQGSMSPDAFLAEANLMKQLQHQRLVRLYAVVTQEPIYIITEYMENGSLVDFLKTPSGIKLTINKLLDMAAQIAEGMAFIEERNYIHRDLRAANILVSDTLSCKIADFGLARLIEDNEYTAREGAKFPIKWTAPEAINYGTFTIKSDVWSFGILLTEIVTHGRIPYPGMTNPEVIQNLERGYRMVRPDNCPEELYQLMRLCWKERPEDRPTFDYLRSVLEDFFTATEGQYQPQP

AKT3 (human) = AKT3 (human) (UniProt Q9Y243)
EPHA4 (human) = EPHA4 (human) (UniProt P54764)
DAPK3 (human) = DAPK3 (human) (UniProt O43293)
RPS6KA3 KD1 KD2 (human) = RPS6KA3 KD1 KD2 (human) (UniProt P51812)
AXL (human) = AXL (human) (UniProt P30530)
MAPK13 (human) = MAPK13 (human) (UniProt O15264)
ULK2 (human) = ULK2 (human) (UniProt Q8IYT8)
CAMKK1 (human) = CAMKK1 (human) (UniProt Q8N5S9)
PRKD3 (human) = PRKD3 (human) (UniProt O94806)
EPHB1 (human) = EPHB1 (human) (UniProt P54762)
ACVR1B (human) = ACVR1B (human) (UniProt P36896)
ACVR1B (human), sequence (P36896 whole entry, looked up): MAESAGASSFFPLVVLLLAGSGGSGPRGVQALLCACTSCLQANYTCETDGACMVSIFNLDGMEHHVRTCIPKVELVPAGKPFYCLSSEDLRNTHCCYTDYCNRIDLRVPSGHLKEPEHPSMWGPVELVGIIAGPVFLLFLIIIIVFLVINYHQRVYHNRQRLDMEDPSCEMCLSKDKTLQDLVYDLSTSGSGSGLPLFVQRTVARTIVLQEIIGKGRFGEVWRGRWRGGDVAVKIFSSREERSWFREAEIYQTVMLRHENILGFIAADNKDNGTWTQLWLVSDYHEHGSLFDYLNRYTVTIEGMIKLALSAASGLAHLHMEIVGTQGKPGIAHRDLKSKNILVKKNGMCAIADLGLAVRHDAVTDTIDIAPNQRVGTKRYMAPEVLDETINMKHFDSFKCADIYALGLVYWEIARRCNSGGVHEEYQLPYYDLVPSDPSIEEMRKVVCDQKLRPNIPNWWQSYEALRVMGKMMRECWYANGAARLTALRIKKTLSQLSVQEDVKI

MAP3K9 (human) = MAP3K9 (human) (UniProt P80192)
DMPK (human) = DMPK (human) (UniProt Q09013)
RPS6KA5 KD2 (human) = RPS6KA5 KD2 (human) (UniProt O75582)
EPHB2 (human) = EPHB2 (human) (UniProt P29323)
MYLK2 (human) = MYLK2 (human) (UniProt Q9H1R3)
MYLK2 (human), sequence (Q9H1R3 whole entry, looked up): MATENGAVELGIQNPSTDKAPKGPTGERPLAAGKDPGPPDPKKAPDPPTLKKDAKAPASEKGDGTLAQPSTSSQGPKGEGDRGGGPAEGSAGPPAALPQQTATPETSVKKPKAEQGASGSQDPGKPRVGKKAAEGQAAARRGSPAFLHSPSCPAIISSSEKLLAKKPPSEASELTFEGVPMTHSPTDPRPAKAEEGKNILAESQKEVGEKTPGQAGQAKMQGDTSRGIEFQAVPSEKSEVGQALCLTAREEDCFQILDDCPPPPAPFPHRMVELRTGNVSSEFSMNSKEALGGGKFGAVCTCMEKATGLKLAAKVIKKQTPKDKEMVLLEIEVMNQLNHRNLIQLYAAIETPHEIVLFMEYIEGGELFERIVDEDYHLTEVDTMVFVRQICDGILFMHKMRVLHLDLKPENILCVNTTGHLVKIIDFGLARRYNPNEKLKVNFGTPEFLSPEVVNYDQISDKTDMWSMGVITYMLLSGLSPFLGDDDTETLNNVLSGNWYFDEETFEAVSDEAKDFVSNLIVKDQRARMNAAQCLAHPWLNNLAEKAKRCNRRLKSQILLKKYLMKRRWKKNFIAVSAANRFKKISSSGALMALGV

MAP2K2 (human) = MAP2K2 (human) (UniProt P36507)
DYRK4 (human) = DYRK4 (human) (UniProt Q9NR20)
CDK1 CCNB1 (human) = CDK1 CCNB1 (human) (UniProt P06493+P14635)
CDK5 CDK5R1 p25 (human) = CDK5 CDK5R1 p25 (human) (UniProt Q00535+Q15078)
PBK (human) = PBK (human) (UniProt Q96KB5)
MAP2K1 (human) = MAP2K1 (human) (UniProt Q02750)
YES1 (human) = YES1 (human) (UniProt P07947)
YES1 (human), sequence (P07947 whole entry, looked up): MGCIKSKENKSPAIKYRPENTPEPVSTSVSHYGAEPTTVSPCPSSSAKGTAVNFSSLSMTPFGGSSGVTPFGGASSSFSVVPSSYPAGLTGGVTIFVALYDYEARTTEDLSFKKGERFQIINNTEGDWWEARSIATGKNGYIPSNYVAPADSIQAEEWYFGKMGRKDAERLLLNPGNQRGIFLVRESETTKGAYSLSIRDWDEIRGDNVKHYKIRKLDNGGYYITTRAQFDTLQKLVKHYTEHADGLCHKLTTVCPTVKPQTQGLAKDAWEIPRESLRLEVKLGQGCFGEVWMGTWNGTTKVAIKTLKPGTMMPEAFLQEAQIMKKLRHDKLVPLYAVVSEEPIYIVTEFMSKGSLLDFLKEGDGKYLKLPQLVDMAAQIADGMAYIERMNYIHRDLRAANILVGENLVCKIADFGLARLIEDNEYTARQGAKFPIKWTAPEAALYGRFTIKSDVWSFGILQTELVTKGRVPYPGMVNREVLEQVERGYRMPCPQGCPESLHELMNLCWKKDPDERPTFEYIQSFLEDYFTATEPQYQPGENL

BMX (human) = BMX (human) (UniProt P51813)
BMX (human), sequence (P51813 whole entry, looked up): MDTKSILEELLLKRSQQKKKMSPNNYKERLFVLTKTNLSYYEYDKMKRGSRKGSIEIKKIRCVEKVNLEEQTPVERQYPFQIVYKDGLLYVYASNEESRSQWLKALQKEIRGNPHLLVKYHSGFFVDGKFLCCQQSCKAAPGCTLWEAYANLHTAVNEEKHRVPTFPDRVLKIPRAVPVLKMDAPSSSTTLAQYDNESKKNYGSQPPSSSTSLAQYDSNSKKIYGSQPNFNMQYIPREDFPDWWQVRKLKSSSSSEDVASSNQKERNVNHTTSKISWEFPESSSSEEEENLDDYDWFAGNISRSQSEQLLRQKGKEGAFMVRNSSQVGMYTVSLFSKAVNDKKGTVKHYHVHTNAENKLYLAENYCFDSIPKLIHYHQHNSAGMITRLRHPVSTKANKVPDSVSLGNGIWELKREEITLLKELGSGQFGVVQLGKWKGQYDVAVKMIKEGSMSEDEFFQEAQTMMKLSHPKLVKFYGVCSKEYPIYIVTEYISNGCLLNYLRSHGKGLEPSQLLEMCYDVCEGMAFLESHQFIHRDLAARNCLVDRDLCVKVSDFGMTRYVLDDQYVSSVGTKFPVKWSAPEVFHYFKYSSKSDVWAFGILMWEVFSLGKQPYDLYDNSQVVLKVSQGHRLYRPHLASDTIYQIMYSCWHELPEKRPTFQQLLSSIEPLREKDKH

MARK3 (human) = MARK3 (human) (UniProt P27448)
BRSK1 (human) = BRSK1 (human) (UniProt Q8TDC3)
INSR (human) = INSR (human) (UniProt P06213)
LYN (human) = LYN (human) (UniProt P07948)
GSG2 (human) = GSG2 (human) (UniProt Q8TF76)
MAPKAPK3 (human) = MAPKAPK3 (human) (UniProt Q16644)
MAPKAPK3 (human), sequence (Q16644 whole entry, looked up): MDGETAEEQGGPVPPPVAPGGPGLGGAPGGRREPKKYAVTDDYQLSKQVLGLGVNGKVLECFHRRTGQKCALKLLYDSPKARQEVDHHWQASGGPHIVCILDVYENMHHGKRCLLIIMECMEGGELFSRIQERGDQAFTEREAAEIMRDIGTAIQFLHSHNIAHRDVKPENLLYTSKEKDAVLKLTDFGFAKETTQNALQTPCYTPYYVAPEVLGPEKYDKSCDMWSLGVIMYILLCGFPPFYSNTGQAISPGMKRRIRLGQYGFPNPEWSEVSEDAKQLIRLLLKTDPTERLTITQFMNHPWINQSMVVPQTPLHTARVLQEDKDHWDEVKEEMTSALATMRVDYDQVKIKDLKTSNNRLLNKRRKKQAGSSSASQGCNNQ

PRKD1 (human) = PRKD1 (human) (UniProt Q15139)
PIM3 (human) = PIM3 (human) (UniProt Q86V86)
LIMK1 (human) = LIMK1 (human) (UniProt P53667)
LIMK1 (human), sequence (P53667 whole entry, looked up): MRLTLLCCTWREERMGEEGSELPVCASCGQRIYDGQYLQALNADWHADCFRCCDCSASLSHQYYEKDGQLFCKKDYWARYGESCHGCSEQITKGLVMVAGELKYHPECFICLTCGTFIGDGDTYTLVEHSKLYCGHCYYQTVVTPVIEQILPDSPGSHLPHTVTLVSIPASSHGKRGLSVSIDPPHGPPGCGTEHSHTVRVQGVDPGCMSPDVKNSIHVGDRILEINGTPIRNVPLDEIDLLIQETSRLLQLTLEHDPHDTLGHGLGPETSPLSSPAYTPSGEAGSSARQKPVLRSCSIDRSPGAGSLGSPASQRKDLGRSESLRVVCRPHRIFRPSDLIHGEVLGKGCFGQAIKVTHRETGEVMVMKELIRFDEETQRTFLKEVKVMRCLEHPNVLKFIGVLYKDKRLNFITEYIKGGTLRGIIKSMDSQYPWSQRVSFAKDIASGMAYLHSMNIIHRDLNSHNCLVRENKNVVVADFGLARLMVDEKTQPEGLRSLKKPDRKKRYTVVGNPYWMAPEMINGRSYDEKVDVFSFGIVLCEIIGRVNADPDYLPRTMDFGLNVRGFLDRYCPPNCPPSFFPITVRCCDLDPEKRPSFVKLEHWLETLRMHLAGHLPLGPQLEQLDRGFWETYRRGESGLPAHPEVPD

PHKG2 (human) = PHKG2 (human) (UniProt P15735)
NLK (human) = NLK (human) (UniProt Q9UBE8)
ADRBK2 (human) = ADRBK2 (human) (UniProt P35626)
STK24 (human) = STK24 (human) (UniProt Q9Y6E0)
LRRK2 (human) = LRRK2 (human) (UniProt Q5S007)

CSF1R (human), sequence (P07333 whole entry, looked up): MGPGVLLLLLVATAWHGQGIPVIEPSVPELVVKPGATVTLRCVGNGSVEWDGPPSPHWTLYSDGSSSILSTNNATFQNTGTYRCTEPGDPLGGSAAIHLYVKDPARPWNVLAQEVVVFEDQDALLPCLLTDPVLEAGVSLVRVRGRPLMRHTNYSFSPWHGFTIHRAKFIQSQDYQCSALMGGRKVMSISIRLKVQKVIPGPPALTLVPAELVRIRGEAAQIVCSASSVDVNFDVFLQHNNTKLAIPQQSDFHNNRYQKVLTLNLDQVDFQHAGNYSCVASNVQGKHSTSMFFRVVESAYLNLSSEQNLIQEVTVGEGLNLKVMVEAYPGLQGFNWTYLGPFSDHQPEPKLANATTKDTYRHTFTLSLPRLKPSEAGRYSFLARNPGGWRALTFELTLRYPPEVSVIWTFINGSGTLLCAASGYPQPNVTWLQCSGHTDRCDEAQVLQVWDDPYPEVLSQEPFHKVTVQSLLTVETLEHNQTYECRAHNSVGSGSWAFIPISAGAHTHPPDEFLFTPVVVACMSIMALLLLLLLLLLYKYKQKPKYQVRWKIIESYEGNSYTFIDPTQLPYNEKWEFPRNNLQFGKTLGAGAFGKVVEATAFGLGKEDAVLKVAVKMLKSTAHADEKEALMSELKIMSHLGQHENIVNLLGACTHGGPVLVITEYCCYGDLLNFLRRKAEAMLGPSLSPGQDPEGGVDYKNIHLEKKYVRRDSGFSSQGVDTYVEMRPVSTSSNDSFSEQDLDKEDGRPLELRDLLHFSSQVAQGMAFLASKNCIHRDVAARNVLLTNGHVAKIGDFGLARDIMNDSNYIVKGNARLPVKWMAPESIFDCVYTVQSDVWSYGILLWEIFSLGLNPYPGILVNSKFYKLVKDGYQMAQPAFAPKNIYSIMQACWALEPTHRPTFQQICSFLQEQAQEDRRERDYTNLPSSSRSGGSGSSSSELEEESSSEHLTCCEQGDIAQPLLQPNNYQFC

## O=c1cc(-c2cccc3c2Sc2ccccc2S3)oc(N2CCOCC2)c1
CSF1R (human)
  residual activity: 91.9%
FLT3 (human)
  residual activity: 98.4%
PAK7 (human)
  residual activity: 98.8%
LCK (human)
  residual activity: 98.1%
AKT3 (human)
  residual activity: 109%
EPHA4 (human)
  residual activity: 101%
DAPK3 (human)
  residual activity: 106%
RPS6KA3 KD1 KD2 (human)
  residual activity: 102%
AXL (human)
  residual activity: 106%
MAPK13 (human)
  residual activity: 101%
ULK2 (human)
  residual activity: 123%
CAMKK1 (human)
  residual activity: 112%
PRKD3 (human)
  residual activity: 83.4%
EPHB1 (human)
  residual activity: 110%
ACVR1B (human)
  residual activity: 114%
MAP3K9 (human)
  residual activity: 95.5%
DMPK (human)
  residual activity: 94.8%
RPS6KA5 KD2 (human)
  residual activity: 117%
EPHB2 (human)
  residual activity: 102%
MYLK2 (human)
  residual activity: 97.4%
MAP2K2 (human)
  residual activity: 81.8%
DYRK4 (human)
  residual activity: 105%
CDK1 CCNB1 (human)
  residual activity: 88.5%
CDK5 CDK5R1 p25 (human)
  residual activity: 96.8%
PBK (human)
  residual activity: 99.4%
MAP2K1 (human)
  residual activity: 94.9%
YES1 (human)
  residual activity: 89.4%
BMX (human)
  residual activity: 112%
MARK3 (human)
  residual activity: 106%
BRSK1 (human)
  residual activity: 98.2%
INSR (human)
  residual activity: 105%
LYN (human)
  residual activity: 106% and 116%
GSG2 (human)
  residual activity: 106%
MAPKAPK3 (human)
  residual activity: 102%
PRKD1 (human)
  residual activity: 90.3%
PIM3 (human)
  residual activity: 52.3%
LIMK1 (human)
  residual activity: 103%
PHKG2 (human)
  residual activity: 98.6%
NLK (human)
  residual activity: 108%
ADRBK2 (human)
  residual activity: 100%
STK24 (human)
  residual activity: 97.8%
LRRK2 (human)
  residual activity: 102%

## NC(=O)c1ccc(N(C(N)=O)c2c(F)cccc2F)nc1-c1ccc(F)cc1F
CSF1R (human)
  residual activity: 109%
FLT3 (human)
  residual activity: 97.2%
PAK7 (human)
  residual activity: 96.4%
LCK (human)
  residual activity: 86.3%
AKT3 (human)
  residual activity: 86.2%
EPHA4 (human)
  residual activity: 105%
DAPK3 (human)
  residual activity: 107%
RPS6KA3 KD1 KD2 (human)
  residual activity: 99.8%
AXL (human)
  residual activity: 101%
MAPK13 (human)
  residual activity: 94%
ULK2 (human)
  residual activity: 101%
CAMKK1 (human)
  residual activity: 98.9%
PRKD3 (human)
  residual activity: 85.1%
EPHB1 (human)
  residual activity: 100%
ACVR1B (human)
  residual activity: 113%
MAP3K9 (human)
  residual activity: 112%
DMPK (human)
  residual activity: 104%
RPS6KA5 KD2 (human)
  residual activity: 92.8%
EPHB2 (human)
  residual activity: 107%
MYLK2 (human)
  residual activity: 101%
MAP2K2 (human)
  residual activity: 92.3%
DYRK4 (human)
  residual activity: 96.3%
CDK1 CCNB1 (human)
  residual activity: 95.7%
CDK5 CDK5R1 p25 (human)
  residual activity: 95.9%
PBK (human)
  residual activity: 110%
MAP2K1 (human)
  residual activity: 89%
YES1 (human)
  residual activity: 97.8%
BMX (human)
  residual activity: 108%
MARK3 (human)
  residual activity: 98.1%
BRSK1 (human)
  residual activity: 94.2%
INSR (human)
  residual activity: 104%
LYN (human)
  residual activity: 106% and 98.1%
GSG2 (human)
  residual activity: 81.3%
MAPKAPK3 (human)
  residual activity: 99.1%
PRKD1 (human)
  residual activity: 97.7%
PIM3 (human)
  residual activity: 97.7%
LIMK1 (human)
  residual activity: 98.5%
PHKG2 (human)
  residual activity: 93.1%
NLK (human)
  residual activity: 15.8%
ADRBK2 (human)
  residual activity: 98.1%
STK24 (human)
  residual activity: 105%
LRRK2 (human)
  residual activity: 82%

## O=C(Nc1ccc(Cl)cc1)c1ccccc1NCc1ccncc1
CSF1R (human)
  residual activity: 18.4%
FLT3 (human)
  residual activity: 91.5%
PAK7 (human)
  residual activity: 79.4%
LCK (human)
  residual activity: 93.3%
AKT3 (human)
  residual activity: 97.9%
EPHA4 (human)
  residual activity: 96.5%
DAPK3 (human)
  residual activity: 94%
RPS6KA3 KD1 KD2 (human)
  residual activity: 91.4%
AXL (human)
  residual activity: 98.1%
MAPK13 (human)
  residual activity: 95.6%
ULK2 (human)
  residual activity: 104%
CAMKK1 (human)
  residual activity: 98.5%
PRKD3 (human)
  residual activity: 92.1%
EPHB1 (human)
  residual activity: 90.2%
ACVR1B (human)
  residual activity: 95.8%
MAP3K9 (human)
  residual activity: 89%
DMPK (human)
  residual activity: 103%
RPS6KA5 KD2 (human)
  residual activity: 92.5%
EPHB2 (human)
  residual activity: 84.7%
MYLK2 (human)
  residual activity: 99.5%
MAP2K2 (human)
  residual activity: 102%
DYRK4 (human)
  residual activity: 104%
CDK1 CCNB1 (human)
  residual activity: 96.3%
CDK5 CDK5R1 p25 (human)
  residual activity: 84.9%
PBK (human)
  residual activity: 88.5%
MAP2K1 (human)
  residual activity: 96.8%
YES1 (human)
  residual activity: 95.3%
BMX (human)
  residual activity: 90.5%
MARK3 (human)
  residual activity: 93.1%
BRSK1 (human)
  residual activity: 94%
INSR (human)
  residual activity: 88%
LYN (human)
  residual activity: 75.1% and 93.7%
GSG2 (human)
  residual activity: 95.5%
MAPKAPK3 (human)
  residual activity: 91.4%
PRKD1 (human)
  residual activity: 93.2%
PIM3 (human)
  residual activity: 93%
LIMK1 (human)
  residual activity: 83.4%
PHKG2 (human)
  residual activity: 97.1%
NLK (human)
  residual activity: 87.2%
ADRBK2 (human)
  residual activity: 96.1%
STK24 (human)
  residual activity: 92.6%
LRRK2 (human)
  residual activity: 98.7%
